From US20240158386A1, “BENZOXAZOLONE INHIBITORS OF INFLAMMASOMES” (ICAHN SCHOOL OF MEDICINE AT MOUNT SINAI, priority 2021, published 2024)

What was measured:
[1] = target: T1, NLRP3 inflammasome (Mus musculus, UniProt Q8R4B8); experiment: NLRP3 inflammasome activation assay: IL-1β release by primary microglia after LPS and ATP; type: cell-based, murine; details: for inhibition of IL-1β release upon NLRP3 activation: 100 μM compound; for inhibition of IL-1β release upon NLRP3 activation / IC50: microglia, LPS and ATP; for IC50: IL-1β release, nonlinear fit of dose-response, read-out: IC50; for remaining activity at 100 µM: microglia cultures pretreated with 100 μM compound before NLRP3 activation with LPS and ATP, read-out: % Residual activity (percentage of IL-1β, referred to control)
T1 construct: endogenous in cells; host or cells: primary microglia from cortices of 2-3 day old WT mouse pups
T1 sequence (Q8R4B8 whole entry): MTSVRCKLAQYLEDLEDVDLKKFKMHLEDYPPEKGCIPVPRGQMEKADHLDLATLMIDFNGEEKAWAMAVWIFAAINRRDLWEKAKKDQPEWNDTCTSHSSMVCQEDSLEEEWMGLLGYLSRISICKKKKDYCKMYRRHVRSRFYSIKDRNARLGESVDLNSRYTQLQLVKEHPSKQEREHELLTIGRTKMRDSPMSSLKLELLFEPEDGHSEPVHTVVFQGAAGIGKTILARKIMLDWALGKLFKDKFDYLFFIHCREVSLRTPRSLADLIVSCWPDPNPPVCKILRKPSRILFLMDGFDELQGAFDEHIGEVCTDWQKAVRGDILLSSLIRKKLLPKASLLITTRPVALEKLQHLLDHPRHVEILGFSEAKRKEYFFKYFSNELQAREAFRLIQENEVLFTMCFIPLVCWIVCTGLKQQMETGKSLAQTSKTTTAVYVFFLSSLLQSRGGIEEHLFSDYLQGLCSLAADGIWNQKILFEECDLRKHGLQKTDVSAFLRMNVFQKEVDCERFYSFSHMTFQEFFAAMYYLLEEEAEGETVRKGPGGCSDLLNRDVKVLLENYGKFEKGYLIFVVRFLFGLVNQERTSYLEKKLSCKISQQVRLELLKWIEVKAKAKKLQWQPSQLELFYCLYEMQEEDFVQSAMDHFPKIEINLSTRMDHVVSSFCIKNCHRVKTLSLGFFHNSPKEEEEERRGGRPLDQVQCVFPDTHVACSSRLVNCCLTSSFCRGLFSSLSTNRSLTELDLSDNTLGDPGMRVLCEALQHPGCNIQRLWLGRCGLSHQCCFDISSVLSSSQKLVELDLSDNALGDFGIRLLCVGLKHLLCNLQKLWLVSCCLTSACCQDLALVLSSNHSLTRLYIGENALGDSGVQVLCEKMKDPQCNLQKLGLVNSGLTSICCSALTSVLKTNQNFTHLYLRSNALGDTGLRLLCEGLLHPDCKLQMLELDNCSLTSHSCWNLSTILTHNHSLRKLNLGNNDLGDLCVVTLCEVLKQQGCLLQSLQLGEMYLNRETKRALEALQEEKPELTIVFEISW
Method: Murine primary microglia. Mixed cortical cultures were prepared as previously described (Bronstein, R. et al. J. Vis. Exp. JoVE 50647 (2013) doi:10.3791/50647). Briefly, cortices from 2-3 days old, WT, or NLRP3 KO pups were isolated, digested, and seeded at a density of 8 cortices per 10 ml petri dish. Every three days, the medium was replaced by fresh culture medium (DMEM, 10% FBS, 1% penicillin-streptomycin). After three weeks, mixed glial cultures had reached confluence, and microglia cells were isolated by mild trypsinization as previously described (Saura, J. et al. Glia 44, 183-189 (2003)). In brief, cells were washed with culture medium without FBS and treated with a mixture of trypsin 0.25% (without EDTA) and DMEM-F12 medium in a 1:3 proportion. After an incubation period of approximately 40 min, an intact layer of mixed glial cells detached, leaving microglia attached firmly to the bottom of the Petri-dish. Pure microglia were then isolated by 15 min incubation with trypsin (0.05%)-EDTA at 37° C., followed by gentle shaking. Cells were counted and seeded at the desired density, typically 7.5·10^4 cells/well in 24 well-plates.
NLRP3 inflammasome activation assay. Primary microglia cultures were incubated with the compounds that inhibited IL-1β production in THP1 macrophages. Cells pretreated with 100 μM of the compounds—or with the same DMSO volume, in the case of control samples—were primed with 400 ng/ml LPS for 3 hours, and activated with 4.5 mM ATP for 45 minutes or […] nigericin for 1 hour. Dose-response curves were conducted by incubating microglia cultures with different concentrations of the selected compounds, ranging from 0.001 to 100 μM, 1 hour before NLRP3 activation with LPS and ATP. Supernatants were collected for IL-1β and toxicity assessments.
(§1) Cytokine quantification. IL-1β in cell supernatants and brain tissue samples—after the different treatment groups—was quantified using the Mouse IL-1 beta/IL-1F2 DuoSet ELISA kit (R&D systems), IL-6 in cell culture supernatant was measured through the Mouse IL-6 ELISA kit (ThermoFisher), TNF-α in cell culture supernatants was determined using the Mouse TNF-alpha DuoSet ELISA (R*D systems), and IL-18 in brain tissue was measured through the IL-18 Mouse ELISA Kit (Invitrogen) following the manufacturers' recommended protocol. IL-1β precursor and cleaved IL-1β in the FC of mice treated with vehicles, LPS, or C77-LPS was assessed by western blot. All samples were run in technical duplicates.

[2] = system: ASC specks following NLRP3 activation; experiment: ASC speck formation / ASC oligomerization in m-Cerulean ASC labeled macrophages; type: cell-based, murine; details: 10 μM pretreatment, LPS and ATP, compared with DMSO-treated cells
Method: m-Cerulean ASC labeled macrophages. NLRP3 Knock Out immortalized murine macrophages, stably expressing m-Cerulean-ASC, and NLRP3-Flag were a kind donation of Prof. Eicke Latz, (Institute of Innate Immunity, University of Bonn, Germany). Murine macrophages were maintained in high glucose DMEM medium supplemented with 10% FBS, 1% sodium pyruvate, and passaged every 2-3 days, before reaching confluence.
For ASC speck formation evaluation, murine macrophages were seeded in 96 well SCREENSTAR black microplates with clear base, 24 hours before stimulation. Then, cells were incubated for 1 hour with different concentrations of the inhibitors, or with the same DMSO volume for positive and negative controls for NLRP3 activation—DMSO-LPS-ATP or only DMSO, respectively. 0.5 μM MCC950 was used as a positive control for inhibition of NLRP3-mediated ASC oligomerization. NLRP3 activation was induced through treatment with 250 ng/ml LPS for 2.5 hours, followed by addition of 4.5 mM ATP for 45 min. Cells were then fixed and counterstained in a single step, as previously described (Stutz, A. et al. ASC Speck Formation as a Readout for Inflammasome Activation. in The Inflammasome (eds. De Nardo, C. M. & Latz, E.) vol. 1040 91-101 (Humana Press, 2013).). For that, a stock solution of DRAQS in formaldehyde was used, being the final concentrations 1% formaldehyde and 2.5 μM DRAQ5.
ASC oligomerization determination. […] ASC specks in cells pretreated with C75, C77, C78, and C97, before NLRP3 activation (as above indicated), were visualized with a widefield Leica DMi8 fluorescence microscope, using the 20× objective. […] For image analysis and speck quantification, ImageJ was used https://imagej.nih.gov/ij/index.html. Speck and nuclei quantification was performed as previously described in Stutz et al. When required (overlapping nuclei), the watershed separation algorithm was used to separate the particles. […] The rate of speck positive cells was calculated by normalizing the number of speck positive cells to the number of nuclei. […]

[3] = target: T2, NLRC4 inflammasome (Mus musculus, UniProt Q3UP24); experiment: NLRC4 inflammasome activation assay: IL-1β release, microglia from NLRP3 KO mice, LPS and flagellin; type: cell-based; details: 10 μM; microglia from NLRP3 KO mice, LPS and flagellin
T2 construct: endogenous in cells; host or cells: primary microglia from NLRP3 KO mice
T2 sequence (Q3UP24 whole entry): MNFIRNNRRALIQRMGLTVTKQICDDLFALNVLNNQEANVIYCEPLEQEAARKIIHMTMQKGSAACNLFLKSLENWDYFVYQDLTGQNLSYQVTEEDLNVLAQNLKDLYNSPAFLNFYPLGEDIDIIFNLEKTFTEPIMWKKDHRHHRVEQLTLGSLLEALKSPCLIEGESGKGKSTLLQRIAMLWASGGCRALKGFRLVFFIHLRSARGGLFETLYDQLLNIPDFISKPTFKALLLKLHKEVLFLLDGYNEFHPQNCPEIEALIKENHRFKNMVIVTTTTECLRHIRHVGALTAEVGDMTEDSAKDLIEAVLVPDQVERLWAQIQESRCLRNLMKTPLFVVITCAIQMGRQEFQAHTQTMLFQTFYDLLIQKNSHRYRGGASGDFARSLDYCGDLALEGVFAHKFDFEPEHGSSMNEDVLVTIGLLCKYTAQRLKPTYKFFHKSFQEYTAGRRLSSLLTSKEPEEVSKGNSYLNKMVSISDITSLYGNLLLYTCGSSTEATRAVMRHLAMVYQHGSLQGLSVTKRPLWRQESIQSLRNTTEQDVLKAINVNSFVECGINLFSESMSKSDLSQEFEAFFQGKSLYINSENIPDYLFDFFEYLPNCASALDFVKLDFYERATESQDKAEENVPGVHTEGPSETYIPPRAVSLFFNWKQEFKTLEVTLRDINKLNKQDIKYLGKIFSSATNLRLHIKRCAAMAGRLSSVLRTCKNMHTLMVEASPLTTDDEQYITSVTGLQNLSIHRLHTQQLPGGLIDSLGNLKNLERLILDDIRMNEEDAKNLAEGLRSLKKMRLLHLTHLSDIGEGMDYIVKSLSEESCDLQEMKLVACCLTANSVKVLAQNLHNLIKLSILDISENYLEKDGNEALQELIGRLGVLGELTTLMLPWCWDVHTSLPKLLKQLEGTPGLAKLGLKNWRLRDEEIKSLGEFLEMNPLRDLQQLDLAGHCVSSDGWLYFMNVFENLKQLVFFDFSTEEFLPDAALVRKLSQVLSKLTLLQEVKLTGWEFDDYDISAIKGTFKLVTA
Method: AIM2, NLRP7, and NLRC4 inflammasomes activation assays. […] AIM2 inflammasome activation was induced through the addition of 100 ng/ml LPS for 2 hours, followed by transfection of 1 μg poly(dA:dT) using Lipofectamine 2000 during 2 hours, following the manufacturer recommendations. NLRC4 was activated by treatment with 150 ng/ml LPS for 2 hours, before transfection of 1 μg flagellin during 2 hours, using lipofectamine 2000 as transfection reagent. Negative and positive controls were pre-treated with the same DMSO percentage as cells treated with the inhibitors. Negative controls were kept untreated after DMSO addition, while LPS-poly(dA:dT) or LPS-flagellin was added to positive controls for AIM2, and NLRC4 activation, respectively. For activation of the NLRP7 inflammasome different conditions were assessed: treatment of WT microglia cultures with 400 ng/ml fibroblast-stimulating lipopeptide-1 (fsl-1) for 7 hours, priming with 150 ng/ml LPS for 1 hour and treatment with 400 ng/ml fsl-1 for 7 hours, and priming with 150 ng/ml LPS and transfection of 400 ng/ml fsl-1 with lipofectamine. MCC950 was used as a negative control for NLRC4 and AIM-2 inhibition. Cells were pretreated with 5 μM MCC950 before LPS addition, and 2 hours later the NLRC4 and AIM-2 activation was induced through addition of their specific activators. Cell supernatants were collected for IL-1β measurement.
as §1

| Compound | inhibition of IL-1β release upon NLRP3 activation [1] | IC50 [1] | remaining activity at 100 µM [1] | rate of ASC speck positive cells [2] | inhibition of NLRC4-mediated IL-1β production [3] |
| --- | --- | --- | --- | --- | --- |
| O=C(Cn1c(=O)oc2ccccc21)NCC(O)(c1ccoc1)c1ccco1 (stereo not shown) [Compound C75] | completely prevented IL-1β secretion | 9.24 ± 1.06 µM | 0% | significantly reduced | presented inhibitory power against the NLRC4 inflammasome |
| O=C(Cn1c(=O)oc2ccccc21)NCCn1cc(-c2ccoc2)cn1 [Compound C78, N-(2-(4-(furan-3-yl)-1H-pyrazol-1-yl)ethyl)-2-(2-oxobenzoidloxazol-3(2H)-yl)acetamide] | completely prevented IL-1β secretion | 8.26 ± 1.16 µM | 0% | significantly reduced | presented inhibitory power against the NLRC4 inflammasome |
